Measurements: patent US8445510B2, “Fused bicyclic kinase inhibitors” (OSI Pharmaceuticals, LLC, priority 2011, dated 2013)

Legend:
Assay type in all cases: cell-based
[1] = test system: Karpas-299 cells; assay: Karpas-299 cell proliferation assay (CellTiter-Glo); conditions: Homo sapiens, 72 h; Karpas-299 cell line (NPM-ALK); 3 days incubation; at least duplicate experiments; read-out: Prolif. IC50
Method: The effect of inhibitors on the proliferation of Karpas-299 cells (DSMZ no. ACC 31) was determined using the following protocol. Karpas-299 cells were plated in 96-well white tissue culture treated plates (Corning 3917) in growth medium (RPMI, 10% FCS) at a density of 5000 cells/well in a total volume of 135 μL and incubated at 37° C., 5% CO2, 95% humidity overnight. The following day, one-tenth volume of a 10× concentration of compounds was added to the wells in an 8-point dilution series. Compounds were serially diluted (1:4) in DMSO from a 10 mM stock solution prior to dilution in growth media to the 10× working concentrations (5% DMSO). Final concentration of DMSO in compound-treated wells was 0.5%. Control wells containing growth media or growth media/0.5% DMSO were included in all test plates. […] Once the compounds were added to the cells, plates were incubated for 3 days at 37° C., 5% CO2 at 95% humidity. After 72 hours, all cells and reagents were equilibrated to room temperature and 15 μL of CellTiter-Glo reagent (Promega # G7573) was added to each well. Plates were shaken on a platform for 10 minutes at room temperature prior to reading luminescence. The value of the signal of the control wells was set as 100% growth and growth inhibition was expressed as percent of control. IC50 values were determined from the percent of control data using a standard four-parameter curve fit equation.
(§1) The IC50 values of exemplary compounds of the present invention determined in a cell proliferation assay using the Karpas-299 cell line according to the procedures described herein in at least duplicate experiments are abbreviated as follows and are shown in Table 5: A, IC50≦0.05 μM; B, 0.05 μM<IC50≦0.2 μM; C, 0.2 μM<IC50≦1 μM; D, IC50>1 μM; ND, not determined. The Example # of Table 5 corresponds to the compound example number as illustrated in the Examples section.
The Karpas-299 cell line has a t(2; 5) chromosomal translocation and expresses the NPM-ALK fusion protein, resulting in constitutively active ALK. […] Ther. 6(12):3314-22 (2007)]. With this “ALK-driven” cell line, the cell proliferation IC50 values can thus be used as surrogate for the p-ALK cell mechanistic IC50 values.

[2] = test system: MKN45 cells; assay: MKN45 cell proliferation assay (CellTiter-Glo); conditions: Homo sapiens, MKN-45, 72 h; MKN45 cell line; 3 days incubation; at least duplicate experiments; read-out: Prolif. IC50
Method: The effect of inhibitors on the proliferation of MKN45 cells was determined using the following protocol. MKN45 cells were plated in Corning 3917 96-well white tissue culture treated plates in growth medium (RPMI, 10% FCS) at a density of 5000 cells/well in a total volume of 135 μL and incubated at 37° C., 5% CO2, 95% humidity overnight. The following day, one-tenth volume of a 10× concentration of compounds was added to the wells in an 8-point dilution series. The dilution series was composed of an initial 1:5 dilution of a 10 mM stock of compound in DMSO, followed by serial 1:4 dilutions in DMSO, then a 1:20 dilution in growth medium prior to the 1:10 dilution into the cell plate. […] The typical dilution range is 10 μM to 0.6 nM. Once the compound was added to the cells, plates were incubated for 3 days at 37° C., 5% CO2 at 95% humidity. On the third day, after allowing all cells and reagents to come to room temperature, 25 μL of CellTiter-Glo reagent (Promega #G7573) was added to the wells. Plates were shaken on a platform for 10 minutes prior to reading luminescence for 0.1 seconds. The signal of the control wells was taken as 100% growth and growth inhibition was expressed as percent of control. IC50 values were determined from the percent of control data using a standard four-parameter model.
as §1, with “the MKN45” for “the Karpas-299”, “Table 2:” for “Table 5:”, “Table 2” for “Table 5”
Treatment of this cell line with a selective c-MET inhibitor led to induction of apoptosis and inhibition of proliferation, whereas non-MET-amplified cell lines were not affected [Smolen et al., Proc. Natl. Acad. Sci. USA, 103(7):2316-2321 (2006)]. This cell line is thus “driven” by c-MET, and antiproliferative effects correlate very well with the inhibition of c-MET phosphorylation so that the cell proliferation IC50, values can be used as surrogate for the c-MET cell mechanistic IC50, values. Under the assay conditions described herein, the IC50 values correlate nearly 1:1.

[3] = molecular target: T1, RON (Homo sapiens, UniProt Q04912); assay: sfRON cell mechanistic assay (HeLa), phosphorylated RON ELISA; conditions: HeLa cells transfected with sfRON; inhibition of phosphorylated RON; four hours incubation; at least duplicate experiments; read-out: sfRON mech IC50
T1 sequence (Q04912 913-1400): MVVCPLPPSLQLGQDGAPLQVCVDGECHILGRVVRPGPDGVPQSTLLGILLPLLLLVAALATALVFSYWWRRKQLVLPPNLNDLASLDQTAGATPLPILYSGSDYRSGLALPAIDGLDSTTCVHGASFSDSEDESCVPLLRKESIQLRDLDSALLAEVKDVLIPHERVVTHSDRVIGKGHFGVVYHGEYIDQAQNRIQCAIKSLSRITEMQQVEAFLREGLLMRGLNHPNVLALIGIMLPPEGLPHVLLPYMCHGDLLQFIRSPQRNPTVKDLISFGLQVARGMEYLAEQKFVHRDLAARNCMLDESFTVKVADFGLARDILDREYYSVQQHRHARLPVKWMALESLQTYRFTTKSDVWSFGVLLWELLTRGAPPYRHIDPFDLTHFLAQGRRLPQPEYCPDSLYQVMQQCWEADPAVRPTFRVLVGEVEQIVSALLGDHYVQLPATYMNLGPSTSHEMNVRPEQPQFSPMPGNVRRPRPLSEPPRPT
Method: The cellular activity of the compounds of the present invention against RON may be determined by the following procedure. HeLa cells were plated in Falcon 3072 96-well plates in growth media (DMEM, 10% FBS, 1% L-glutamine) at a density of 10000 cells/well and incubated at 37° C., 5% CO2 overnight. The following day, cells were transfected with 0.2 μg sfRON-pcDNA plasmid DNA with 0.5 μL Lipofectamine-2000 per well in the presence of 50 μL OPTI-MEM, incubated at 37° C., 5% CO2 overnight. Costar 3915 96-well assay plates were coated with rabbit Anti-RON antibody at 2.0 μg/mL, sealed, and incubated overnight at 4° C. On the third day, coated plates were washed with PBS and blocked with 3% BSA. For the sfRON transfected cells, one-tenth volume of a 10× concentration of compounds was added to the wells in a 6-point dilution series. The dilution series was composed of an initial 1:5 dilution of a 10 mM DMSO stock solution of compound in DMSO, followed by a 1:10 dilution in growth media, for a final DMSO concentration on cells of 0.5%. Control wells were treated with 0.5% DMSO. The typical range of dilution was 10 μM to 3 nM. Once compound was added to the cells, plates were incubated for four hours at 37° C., 5% CO2. Plates were then washed in PBS, and lysed in triton-based lysis buffer. Lysates were transferred to the blocked capture plates. The phosphorylated RON levels were measured by incubating with a Goat polyclonal antibody against phosphorylated RON ([pYpY1238/1239]) followed by an anti-Goat antibody conjugated to HRP. Signal was measured on a Wallac Victor plate reader with luminance. The DMSO signal of the control wells was defined as 100% and the percent of inhibition of phosphorylated RON was expressed as percent of control. IC50 values were determined from the percent of control data using a standard four-parameter model.
The IC50 values of exemplary compounds of the present invention determined in a sfRON cell mechanistic assay using the HeLa cell line according to the procedures described herein in at least duplicate experiments are abbreviated as follows and are shown in Table 3: A, IC50≦0.2 μM; B, 0.2 μM<IC50≦1.0 μM; C, IC50>1 μM; ND, not determined. The Example # of Table 3 corresponds to the compound example number as illustrated in the Examples section.

SMILES | IC50 [1] [µM] | IC50 [2] [µM] | IC50 [3] [µM]
Cc1c(-c2cnc3[nH]cc([C@H](C)c4c(OC(F)F)ccc(F)c4Cl)c3c2)cnn1[C@H]1CC[C@H](N)CC1 [Example 93, trans-4-[4-(3-{(1S)-1-[2-Chloro-6-(difluoromethoxy)-3-fluorophenyl]ethyl}-1H-pyrrolo[2,3-b]pyridin-5-yl)-5-methyl-1H-pyrazol-1-yl]cyclohexanamine] | ≤ 0.05 | ≤ 0.05 | ≤ 0.2
N#CC(c1c(Cl)ccc(F)c1Cl)c1c[nH]c2ncc(-c3cnn([C@H]4CC[C@H](O)CC4)c3F)cc12 (stereo partly drawn) [Example 109] | 0.2 to 1 | 0.05 to 0.2 | 0.2 to 1
COc1c(F)ccc(Cl)c1C(C)c1c[nH]c2ncc(-c3cnn([C@H]4CC[C@H](O)CC4)c3C)cc12 (stereo partly drawn) [Example 112, trans-4-(4-{3-[1-(6-Chloro-3-fluoro-2-methoxyphenyl)ethyl]-1H-pyrrolo[2,3-b]pyridin-5-yl}-5-methyl-1H-pyrazol-1-yl)cyclohexanol] | 0.2 to 1 | > 1 | > 1
[2H]C([2H])([2H])[C@H](c1c(OC(F)F)ccc(F)c1Cl)c1c[nH]c2ncc(-c3cnn([C@H]4CC[C@H](O)CC4)c3C)cc12 [Example 113, trans-4-(4-{3-[(1S)-1-[2-Chloro-6-(difluoromethoxy)-3-fluorophenyl](2,2,2-^2H3)ethyl]-1H-pyrrolo[2,3-b]pyridin-5-yl}-5-methyl-1H-pyrazol-1-yl)cyclohexanol] | ≤ 0.05 | ≤ 0.05 | ≤ 0.2
[2H][C@@](C)(c1c(OC(F)F)ccc(F)c1Cl)c1c[nH]c2ncc(-c3cnn([C@H]4CC[C@H](O)CC4)c3C)cc12 [Example 114, trans-4-(4-{3-[(1S)-1-[2-Chloro-6-(difluoromethoxy)-3-fluorophenyl](1-^2H)ethyl]-1H-pyrrolo[2,3-b]pyridin-5-yl}-5-methyl-1H-pyrazol-1-yl)cyclohexanol] | ≤ 0.05 | ≤ 0.05 | ≤ 0.2
Cc1c(-c2cnc3[nH]cc(C(C)c4c(Cl)ccc(F)c4O)c3c2)cnn1[C@H]1CC[C@H](O)CC1 (stereo partly drawn) [Example 115, 3-Chloro-6-fluoro-2-(1-{5-[1-(trans-4-hydroxycyclohexyl)-5-methyl-1H-pyrazol-4-yl]-1H-pyrrolo[2,3-b]pyridin-3-yl}ethyl)-phenol] | ≤ 0.05 | 0.05 to 0.2 | > 1
Cc1c(-c2cnc3[nH]cc([C@H](CF)c4c(Cl)ccc(F)c4Cl)c3c2)cnn1[C@H]1CC[C@H](O)CC1 [Example 118, trans-4-(4-{3-[(1S)-1-(2,6-Dichloro-3-fluorophenyl)-2-fluoroethyl]-1H-pyrrolo[2,3-b]pyridin-5-yl}-5-methyl-1H-pyrazol-1-yl)cyclohexanol] | 0.05 to 0.2 | 0.05 to 0.2 | 0.2 to 1
COc1ccc(F)c(Cl)c1[C@H](CF)c1c[nH]c2ncc(-c3cnn([C@H]4CC[C@H](O)CC4)c3C)cc12 [Example 120, trans-4-(4-{3-[(1R)-1-(2-Chloro-3-fluoro-6-methoxyphenyl)-2-fluoroethyl]-1H-pyrrolo[2,3-b]pyridin-5-yl}-5-methyl-1H-pyrazol-1-yl)cyclohexanol] | 0.2 to 1 | 0.2 to 1 | > 1
